In assay [1] the target is T1, HCV polymerase (NS5B) type 1a (Hepatitis C virus genotype 1a, UniProt P26664).
T1 construct: made in house; host or cells: Escherichia coli (by the 'similar method' of the 1b enzyme)
Put plainly: Assay of enzyme (HCV polymerase) inhibitory activity, type 1a enzyme. Format: biochemical, HCV type 1a (cloned from the blood of patients). Particulars: HCV polymerase inhibitory activity (IC50), 1a, type 1a enzyme 1.5 μg/ml, 25° C., 60 min. In short, it runs like this: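 IC50 values derive from radioactivity of newly synthesized RNA with versus without test compound. The enzyme was C-terminally truncated type 1a NS5B, 1.5 μg/ml, run 60 min at 25° C with 3H-UTP-labelled nucleotides.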

The target in assay [2] is T2, HCV polymerase (NS5B) type 1b (Hepatitis C virus genotype 1b, UniProt P26663).
T2 construct: a region encoding NS5B (J Virol 1991 March, 65(3), 1105-13, 544 amino acids after deletion of 47 amino acids on the C-terminal); 6xHis (C); made in house; host or cells: Escherichia coli
Put plainly: Assay of enzyme (HCV polymerase) inhibitory activity, type 1b enzyme. In kind it is biochemical, HCV BK strain (type 1b). Particulars: HCV polymerase inhibitory activity (IC50), 1b, type 1b enzyme 0.5 μg/ml, 25° C., 60 min. The method, boiled down:
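Polymerase activity was followed as radiolabelled UTP incorporation by E. coli-expressed, His-tagged NS5B of HCV type 1b lacking its last 47 residues. Conditions: 2 μM UTP, 50 μM other NTPs, Mg2+ buffer at pH 7.5, 25 °C for 60 min. Inhibition relative to compound-free reactions gave IC50.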

The values that follow come from patent US8017612B2, “Piperazine compound and use thereof as a HCV polymerase inhibitor” (priority 2006, dated 2011).

pIC50: −log10 of the molar value.

For the compound `CCC(F)(F)c1ccc(CNC(=O)[C@H]2CN(C(=O)C(C)C)CCN2S(=O)(=O)c2ccc(OC(F)(F)F)cc2)cc1` [Example 609, (R)-4-isobutyryl-1-(4-trifluoromethoxy-benzenesulfonyl)-piperazine-2-carboxylic acid 4-(1,1-difluoro-propyl)-benzylamide], the pIC50 in assay [1] is less than 6.00; in assay [2] it was 6.00 to 7.00.
On to `CCC(F)(F)c1ccc(CNC(=O)[C@H]2CN(C(=O)C3CC3)CCN2S(=O)(=O)c2ccc(OC(F)(F)F)cc2)cc1` [Example 610, (R)-4-cyclopropanecarbonyl-1-(4-trifluoromethoxy-benzenesulfonyl)-piperazine-2-carboxylic acid 4-(1,1-difluoro-propyl)-benzylamide], for which the pIC50 in assay [1] and in assay [2] was 6.00 to 7.00 in each case.
Regarding `CCC(F)(F)c1ccc(CNC(=O)[C@H]2CN(C(=O)C(C)(C)C)CCN2S(=O)(=O)c2ccc(OC(F)(F)F)cc2)cc1` [Example 611, (R)-4-(2,2-dimethyl-propionyl)-1-(4-trifluoromethoxy-benzenesulfonyl)-piperazine-2-carboxylic acid 4-(1,1-difluoro-propyl)-benzylamide], the pIC50 in assay [1] and in assay [2] was less than 6.00 throughout.
As to `CCC(F)(F)c1ccc(CNC(=O)[C@H]2CN(C(=O)Nc3nc(C(C)(C)O)cs3)CCN2S(=O)(=O)c2ccc(OC(F)(F)F)cc2)cc1` [Example 612, (R)-4-(4-trifluoromethoxy-benzenesulfonyl)-piperazine-1,3-dicarboxylic acid 3-[4-(1,1-difluoro-propyl)-benzylamide] 1-{[4-(1-hydroxy-1-methyl-ethyl)-thiazol-2-yl]-amide}], the results for the pIC50 in assay [1] and in assay [2] were less than 6.00 and 6.00 to 7.00, respectively.
For `CC(=O)N1CCN(S(=O)(=O)c2ccc(OC(F)(F)F)cc2)[C@@H](C(=O)NCc2ccc(O)cc2)C1` [Example 613, (R)-4-acetyl-1-(4-trifluoromethoxy-benzenesulfonyl)-piperazine-2-carboxylic acid 4-hydroxy-benzylamide], the negative-log IC50 (pIC50) in assay [1] and in assay [2] was less than 6.00 each time.
`CC(=O)N1CCN(S(=O)(=O)c2ccc(OC(F)(F)F)cc2)[C@@H](C(=O)NCc2ccc(-c3ccccc3)s2)C1` [Example 614, (R)-4-acetyl-1-(4-trifluoromethoxy-benzenesulfonyl)-piperazine-2-carboxylic acid (5-phenyl-thiophen-2-ylmethyl)-amide]: the pIC50 in assay [1] and in assay [2] was 6.00 to 7.00 each time.
Take `CCC(F)(F)c1ccc(CNC(=O)[C@H]2CN(c3cnc4cncnc4n3)CCN2S(=O)(=O)c2ccc(OC(F)(F)F)cc2)cc1` [Example 615, (R)-4-pteridin-7-yl-1-(4-trifluoromethoxy-benzenesulfonyl)-piperazine-2-carboxylic acid 4-(1,1-difluoro-propyl)-benzylamide]: the pIC50 in assay [1] and in assay [2] was greater than 7.00 in each case.
On to `CCC(F)(F)c1ccc(CNC(=O)[C@H]2CN(c3cnc4c(n3)NC(=O)OC4)CCN2S(=O)(=O)c2ccc(OC(F)(F)F)cc2)cc1` [Example 616, (R)-4-(2-oxo-1,4-dihydro-2H-pyrazino[2,3-d][1,3]oxazin-7-yl)-1-(4-trifluoromethoxy-benzenesulfonyl)-piperazine-2-carboxylic acid 4-(1,1-difluoro-propyl)-benzylamide], for which the pIC50 in assay [1] and in assay [2] was greater than 7.00 each time.
As for `CC(C)(C)c1ccc(CNC(=O)[C@H]2CN(c3cnc4cncnc4n3)CCN2S(=O)(=O)c2ccc(OC(F)(F)F)cc2)cc1` [Example 617, (R)-4-pteridin-7-yl-1-(4-trifluoromethoxy-benzenesulfonyl)-piperazine-2-carboxylic acid 4-tert-butyl-benzylamide], the negative logarithm of the IC50 (pIC50) in assay [1] and in assay [2] was greater than 7.00 each time.
For the compound `CC(C)(C)c1ccc(CNC(=O)[C@H]2CN(c3nc4nn[nH]c(=O)c4s3)CCN2S(=O)(=O)c2ccc(OC(F)(F)F)cc2)cc1` [Example 618, (R)-4-(4-oxo-3,4-dihydro-thiazolo[4,5-d][1,2,3]triazin-6-yl)-1-(4-trifluoromethoxy-benzenesulfonyl)-piperazine-2-carboxylic acid 4-tert-butyl-benzylamide], the pIC50 in assay [1] and in assay [2] was greater than 7.00 each time.
As for `CCN(C)c1ccc(CNC(=O)[C@H]2CN(c3cnc4cncnc4n3)CCN2S(=O)(=O)c2ccc(OC(F)(F)F)cc2)cc1` [Example 619, (R)-4-pteridin-7-yl-1-(4-trifluoromethoxy-benzenesulfonyl)-piperazine-2-carboxylic acid 4-(ethyl-methyl-amino)-benzylamide], the pIC50 in assay [1] and in assay [2] was greater than 7.00 in each case.
As to `CC(C)(C)c1ccc(CNC(=O)[C@H]2CN(c3ccc(C(=O)O)nc3)CCN2S(=O)(=O)c2ccc(OC(F)(F)F)cc2)cc1` [Example 620, 5-[(R)-3-(4-tert-butyl-benzylcarbamoyl)-4-(4-trifluoromethoxy-benzenesulfonyl)-piperazin-1-yl]-pyridine-2-carboxylic acid], the pIC50 in assay [1] and in assay [2] was greater than 7.00 in each case.
Turning to `CC(=O)N1CCN(S(=O)(=O)c2ccc(OC(F)(F)F)cc2)[C@@H](C(=O)NCC2(O)CCCCC2)C1` [Example 621, (R)-4-acetyl-1-(4-trifluoromethoxy-benzenesulfonyl)-piperazine-2-carboxylic acid (1-hydroxy-cyclohexylmethyl)-amide], the pIC50 in assay [1] and in assay [2] was less than 6.00 throughout.
Take `CC(=O)N1CCN(S(=O)(=O)c2ccc(OC(F)(F)F)cc2)[C@@H](C(=O)NCc2ccc(-c3cccs3)s2)C1` [Example 622, (R)-4-acetyl-1-(4-trifluoromethoxy-benzenesulfonyl)-piperazine-2-carboxylic acid ([2,2′]bithiophenyl-5-ylmethyl)-amide]: the pIC50 in assay [1] is greater than 7.00; in assay [2], 6.00 to 7.00.
For the compound `CC(=O)N1CCN(S(=O)(=O)c2ccc(OC(F)(F)F)cc2)[C@@H](C(=O)NCc2ccc(-c3cccs3)cc2)C1` [Example 623, (R)-4-acetyl-1-(4-trifluoromethoxy-benzenesulfonyl)-piperazine-2-carboxylic acid 4-thiophen-2-yl-benzylamide], the values for the pIC50 in assay [1] and in assay [2] were greater than 7.00 and 6.00 to 7.00, respectively.
For the compound `CCCc1ccc(CNC(=O)[C@H]2CN(C(C)=O)CCN2S(=O)(=O)c2ccc(OC(F)(F)F)cc2)cc1O` [Example 624, (R)-4-acetyl-1-(4-trifluoromethoxy-benzenesulfonyl)-piperazine-2-carboxylic acid 3-hydroxy-4-propyl-benzylamide], the values for the pIC50 in assay [1] and in assay [2] were less than 6.00 and 6.00 to 7.00, respectively.
As to `CCC(F)(F)c1ccc(CNC(=O)[C@H]2CN(c3nc(OC)ns3)CCN2S(=O)(=O)c2ccc(OC(F)(F)F)cc2)cc1` [Example 625, (R)-4-(3-methoxy-[1,2,4]thiadiazol-5-yl)-1-(4-trifluoromethoxy-benzenesulfonyl)-piperazine-2-carboxylic acid 4-(1,1-difluoro-propyl)-benzylamide], the pIC50 in assay [1] and in assay [2] was greater than 7.00 in each case.
In the case of `CCC(F)(F)c1ccc(CNC(=O)[C@H]2CN(c3ccn4ncnc4n3)CCN2S(=O)(=O)c2ccc(OC(F)(F)F)cc2)cc1` [Example 626, (R)-4-[1,2,4]triazolo[1,5-a]pyrimidin-5-yl-1-(4-trifluoromethoxy-benzenesulfonyl)-piperazine-2-carboxylic acid 4-(1,1-difluoro-propyl)-benzylamide], the pIC50 in assay [1] and in assay [2] was greater than 7.00 throughout.
Regarding `O=C(NCc1ccc(OC(F)(F)F)cc1)[C@H]1CN(c2cnc3cncnc3n2)CCN1S(=O)(=O)c1ccc(OC(F)(F)F)cc1` [Example 627, (R)-4-pteridin-7-yl-1-(4-trifluoromethoxy-benzenesulfonyl)-piperazine-2-carboxylic acid 4-trifluoromethoxy-benzylamide], the pIC50 in assay [1] and in assay [2] was greater than 7.00 each time.
`CCCc1ccc(CNC(=O)[C@H]2CN(c3cnc4[nH]c(=O)[nH]c4n3)CCN2S(=O)(=O)c2ccc(OC(F)(F)F)cc2)cc1` [Example 628, (R)-4-(2-oxo-2,3-dihydro-1H-imidazo[4,5-b]pyrazin-5-yl)-1-(4-trifluoromethoxy-benzenesulfonyl)-piperazine-2-carboxylic acid 4-propyl-benzylamide]: the pIC50 in assay [1] is 6.00 to 7.00; in assay [2], greater than 7.00.
In the case of `O=C(NCc1ccc(Cl)cc1)[C@H]1CN(c2cnc3cncnc3n2)CCN1S(=O)(=O)c1ccc(OC(F)(F)F)cc1` [Example 629, (R)-4-pteridin-7-yl-1-(4-trifluoromethoxy-benzenesulfonyl)-piperazine-2-carboxylic acid 4-chloro-benzylamide], the negative-log IC50 (pIC50) was 6.00 to 7.00 in assay [1] and greater than 7.00 in assay [2].
On to `CN(C)c1ccc(CNC(=O)[C@H]2CN(c3cnc4cncnc4n3)CCN2S(=O)(=O)c2ccc(OC(F)(F)F)cc2)cn1` [Example 630, (R)-4-pteridin-7-yl-1-(4-trifluoromethoxy-benzenesulfonyl)-piperazine-2-carboxylic acid (6-dimethylamino-pyridin-3-ylmethyl)-amide], for which the pIC50 in assay [1] and in assay [2] was greater than 7.00 throughout.

Usually pIC50 stands for the IC50 on a negative log10 scale, so that one unit is a factor of ten. Low values mean a high IC50, high ones a low IC50.
